Experiment [1] has as its system empty vector-transfected parental 1321N1 cells. Briefly: Ca2+ mobilization in empty vector-transfected parental 1321N1 cells. The class given is cell-based, human. The following applies: 10 μM; data not shown. (Calcium assays in cells follow changes in intracellular calcium, usually with a dye or a luminescent sensor.)
Experiment [2] has as its target T1, P2Y2 in neonatal rat cardiomyocytes (NRCMs) (Rattus norvegicus, UniProt P41232). Briefly: cell-based.
The subject of experiment [3] is Nr4a1, Nr4a2, Nr4a3, c-fos mRNA in NRCMs. Description: mRNA expression analysis of Nr4a1, Nr4a2, Nr4a3 and c-fos in NRCMs. Type of experiment: cell-based, rat. The settings on record: for induction of Nr4a1 mRNA at 2 h versus isoproterenol alone: 30 μM Compound 89 or 100 μM ATP in the presence of 10 μM isoproterenol. As for the experimental part: Neonatal rat cardiomyocytes were seeded in a collagen I-coated 96-well plate, then cultured and maintained for a week before the ligand stimulation assay. […] After stimulation, cDNA samples were synthesized from lysates using TaqMan Gene Expression Cells-to-Ct kits (Thermo Fisher Scientific) according to the manufacturer’s instructions, followed by quantitative real-time polymerase chain reaction analysis using a Prism 7900HT sequence detector (Thermo Fisher Scientific). Thermal cycling parameters were 2 min at 50 °C and 10 min at 95 °C, followed by 40 cycles at 95 °C for 15 sec and 60 °C for 1 min. The mRNA levels were analysed with the comparative Ct method (2^−ΔΔCt) using Rplp0 as the housekeeping gene. The TaqMan Gene Expression assays (Thermo Fisher Scientific) used herein were as follows: Rn01533237_m1 (Nr4a1), Rn00570936_m1 (Nr4a2), Rn01354012_m1 (Nr4a3), Rn02396759_m1 (c-fos), and Rn03302271_gH (Rplp0).

The subject of experiment [4] is neonatal rat cardiomyocytes (NRCMs). Briefly: Isoproterenol-induced cardiac hypertrophy in NRCMs. Type of experiment: cell-based. The settings on record: 10 μM isoproterenol. As for the experimental part:
Neonatal rat cardiomyocytes were seeded in a 96-well collagen I plate at a density of 5000 cells/well. They were incubated overnight and then transferred to a serum-free medium for one day. Next, the cells were treated with the indicated concentrations of compounds and 10 μM isoproterenol, and then incubated for 2 days. To quantify cardiomyocyte hypertrophy via filamentous actin staining, NRCMs were fixed with 4% paraformaldehyde (Wako) and permeabilized with 0.1% Triton X-100 (MP Biomedicals, France), followed by blocking with 1% bovine serum albumin (Wako) and staining with 2 μM phalloidin–fluorescein isothiocyanate (phalloidin-FITC; Sigma-Aldrich, Japan) and 10 μM Hoechst 33258 (Dojindo). Quantification of FITC-fluorescence intensity and cell number was performed using an IN Cell Analyzer 6000 (GE Healthcare Japan). The signals from obtained images were quantitated by means of a customized image analysis algorithm using the IN Cell Developer Toolbox (GE Healthcare Japan). Hypertrophic scores were calculated as the product of FITC-fluorescence intensity and cell area per cell as programmed by GE Healthcare technical support experts.

The next experiment concerns the target T2, human P2Y4 receptor (Homo sapiens, UniProt P51582).
T2 construct: expressed in transfected cells; host or cells: 1321N1 human astrocytoma cells, pcDNA3.1(+) plasmid, transient
Description: FLIPR Ca2+ mobilization assay in transiently hP2Y4-expressing 1321N1 cells. The following applies: at up to 30 µM. The class given is cell-based.

The target in experiment [5] is T1, P2Y2 in neonatal rat cardiomyocytes (NRCMs). The following applies: without ATP.
The next experiment relates to β-adrenergic receptor. Briefly: cAMP signalling in parental 1321N1 cells. Type of experiment: cell-based, human.
Another experiment has as its target T3, human P2Y12 receptor (Homo sapiens, UniProt Q9H244).
T3 construct: expressed in transfected cells
Description: cAMP accumulation assay in hP2Y12-1321N1 cells. The class given is cell-based. The following applies: at up to 30 µM.

In a further experiment the target is human P2Y2 receptors (Homo sapiens, UniProt P41231). Description: cell-based.
Sequence of human P2Y2 receptors (P41231 whole entry): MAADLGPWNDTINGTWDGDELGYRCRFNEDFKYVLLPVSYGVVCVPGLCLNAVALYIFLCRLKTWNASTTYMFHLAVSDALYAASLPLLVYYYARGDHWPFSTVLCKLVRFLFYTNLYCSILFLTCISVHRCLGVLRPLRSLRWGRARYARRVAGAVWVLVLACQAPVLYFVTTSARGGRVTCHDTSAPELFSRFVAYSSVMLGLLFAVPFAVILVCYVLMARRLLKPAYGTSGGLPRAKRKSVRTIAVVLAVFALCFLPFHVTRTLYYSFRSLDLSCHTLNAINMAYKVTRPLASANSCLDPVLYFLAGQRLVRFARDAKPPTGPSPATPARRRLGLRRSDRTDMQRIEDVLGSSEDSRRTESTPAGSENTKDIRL
The target of the next experiment is T4, human P2Y6 receptor (Homo sapiens, UniProt Q15077).
T4 construct: expressed in transfected cells; host or cells: 1321N1 human astrocytoma cells, pcDNA3.1(+) plasmid, transient
T4 sequence (Q15077 whole entry): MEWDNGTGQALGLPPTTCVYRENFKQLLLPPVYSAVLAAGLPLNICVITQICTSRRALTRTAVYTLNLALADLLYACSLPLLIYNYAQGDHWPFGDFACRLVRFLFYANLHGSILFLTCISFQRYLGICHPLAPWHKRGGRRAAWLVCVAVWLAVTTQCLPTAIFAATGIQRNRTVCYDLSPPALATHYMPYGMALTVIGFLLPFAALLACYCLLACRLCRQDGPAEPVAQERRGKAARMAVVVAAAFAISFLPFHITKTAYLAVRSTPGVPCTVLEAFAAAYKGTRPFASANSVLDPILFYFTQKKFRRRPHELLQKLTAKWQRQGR
Description: FLIPR Ca2+ mobilization assay in transiently hP2Y6-expressing 1321N1 cells. Type of experiment: cell-based. The following applies: at up to 30 µM.

For another experiment, the target named is T5, mouse P2Y2 receptors (Mus musculus, UniProt P35383).
T5 construct: expressed in transfected cells
T5 sequence (P35383 whole entry): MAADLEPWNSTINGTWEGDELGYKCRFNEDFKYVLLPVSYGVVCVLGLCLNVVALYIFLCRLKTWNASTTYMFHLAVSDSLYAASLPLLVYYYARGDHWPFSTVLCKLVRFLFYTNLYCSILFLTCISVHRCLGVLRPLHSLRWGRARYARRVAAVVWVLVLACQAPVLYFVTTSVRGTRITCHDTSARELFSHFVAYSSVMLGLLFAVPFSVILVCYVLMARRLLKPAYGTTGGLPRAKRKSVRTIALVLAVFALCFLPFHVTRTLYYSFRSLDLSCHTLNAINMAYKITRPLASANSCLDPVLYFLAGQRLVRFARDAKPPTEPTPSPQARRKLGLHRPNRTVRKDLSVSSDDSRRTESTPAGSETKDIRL
Description: FLIPR Ca2+ mobilization assay in mP2Y2-1321N1 cells. The class given is cell-based.

Another experiment has as its target T6, human P2Y1 receptor (Homo sapiens, UniProt P47900).
T6 construct: expressed in transfected cells; host or cells: 1321N1 human astrocytoma cells, pcDNA3.1(+) plasmid, transient
Description: FLIPR Ca2+ mobilization assay in transiently hP2Y1-expressing 1321N1 cells. Type of experiment: cell-based. The settings on record: at up to 30 µM.

In a further experiment the target is T7, human P2Y11 receptor (Homo sapiens, UniProt Q96G91).
T7 construct: expressed in transfected cells; host or cells: 1321N1 human astrocytoma cells, pcDNA3.1(+) plasmid, transient
T7 sequence (Q96G91 1-374): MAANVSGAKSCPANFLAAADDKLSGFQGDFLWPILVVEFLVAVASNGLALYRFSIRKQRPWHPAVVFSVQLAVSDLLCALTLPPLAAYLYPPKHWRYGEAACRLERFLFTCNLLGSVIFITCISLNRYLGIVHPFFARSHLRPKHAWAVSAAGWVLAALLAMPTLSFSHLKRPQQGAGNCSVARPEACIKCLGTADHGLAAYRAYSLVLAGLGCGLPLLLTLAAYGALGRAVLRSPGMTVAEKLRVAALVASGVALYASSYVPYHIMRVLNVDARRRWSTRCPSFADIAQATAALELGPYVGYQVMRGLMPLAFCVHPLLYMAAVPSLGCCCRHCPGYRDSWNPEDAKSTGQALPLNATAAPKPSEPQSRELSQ
Description: FLIPR Ca2+ mobilization assay in transiently hP2Y11-expressing 1321N1 cells. Type of experiment: cell-based. The following applies: at up to 30 µM.

Where [6] appears, read: read-out: extrapolated maximum efficacy with respect to 10 μM ATP.

T1 sequence (P41232 whole entry): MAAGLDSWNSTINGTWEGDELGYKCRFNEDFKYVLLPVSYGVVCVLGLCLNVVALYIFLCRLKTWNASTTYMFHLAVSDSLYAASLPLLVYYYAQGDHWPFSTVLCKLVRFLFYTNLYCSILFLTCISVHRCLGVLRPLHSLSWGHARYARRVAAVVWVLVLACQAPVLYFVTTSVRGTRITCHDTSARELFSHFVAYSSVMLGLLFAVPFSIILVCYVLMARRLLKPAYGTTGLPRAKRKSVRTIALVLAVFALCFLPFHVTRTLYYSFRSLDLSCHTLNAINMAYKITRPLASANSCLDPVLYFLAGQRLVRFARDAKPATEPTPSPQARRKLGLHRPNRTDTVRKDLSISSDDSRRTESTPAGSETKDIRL
T2 sequence (P51582 whole entry): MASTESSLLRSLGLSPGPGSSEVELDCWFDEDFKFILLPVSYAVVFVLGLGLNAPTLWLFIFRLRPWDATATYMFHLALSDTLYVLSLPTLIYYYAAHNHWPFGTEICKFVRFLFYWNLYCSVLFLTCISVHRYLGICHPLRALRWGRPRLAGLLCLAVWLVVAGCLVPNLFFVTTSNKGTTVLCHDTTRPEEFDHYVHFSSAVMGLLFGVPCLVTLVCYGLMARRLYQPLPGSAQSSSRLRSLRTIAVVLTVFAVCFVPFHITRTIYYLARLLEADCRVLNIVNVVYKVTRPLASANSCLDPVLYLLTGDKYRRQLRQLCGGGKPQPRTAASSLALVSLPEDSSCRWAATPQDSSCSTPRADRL
T6 sequence (P47900 whole entry): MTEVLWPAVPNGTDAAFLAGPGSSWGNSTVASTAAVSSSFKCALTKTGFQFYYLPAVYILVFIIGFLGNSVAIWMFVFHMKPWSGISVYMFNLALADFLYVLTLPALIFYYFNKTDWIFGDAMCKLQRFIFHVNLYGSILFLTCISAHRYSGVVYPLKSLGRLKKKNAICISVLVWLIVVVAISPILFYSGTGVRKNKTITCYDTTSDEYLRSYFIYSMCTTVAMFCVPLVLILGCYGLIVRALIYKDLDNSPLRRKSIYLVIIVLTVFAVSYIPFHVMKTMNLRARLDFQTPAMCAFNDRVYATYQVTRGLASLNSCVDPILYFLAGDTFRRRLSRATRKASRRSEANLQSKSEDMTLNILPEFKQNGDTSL
T3 sequence (Q9H244 whole entry): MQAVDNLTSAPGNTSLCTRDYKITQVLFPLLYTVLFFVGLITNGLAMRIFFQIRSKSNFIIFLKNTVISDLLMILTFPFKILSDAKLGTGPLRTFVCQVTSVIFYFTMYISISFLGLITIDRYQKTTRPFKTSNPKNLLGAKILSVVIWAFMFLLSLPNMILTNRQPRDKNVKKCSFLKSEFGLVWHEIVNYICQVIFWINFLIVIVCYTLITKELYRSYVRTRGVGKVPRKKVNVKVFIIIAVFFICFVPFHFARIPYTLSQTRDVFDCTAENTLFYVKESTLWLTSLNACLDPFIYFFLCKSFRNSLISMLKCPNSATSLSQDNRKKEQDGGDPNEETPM

As to `O=c1ccn([C@@H]2O[C@H](COP(=O)(O)OP(=O)(O)O)[C@@H](O)[C@H]2O)c(=O)[nH]1` [UDP, uridine-5′-diphosphate], the “activity in empty vector-transfected parental 1321N1 cells” value in [1] was “lacked activity”.
The same measure, in the same setting: next, `O=c1ccn([C@@H]2O[C@H](COP(=O)(O)OP(=O)(O)OP(=O)(O)O)[C@@H](O)[C@H]2O)c(=O)[nH]1` [UTP, uridine-5′-triphosphate]: “lacked activity”.
As to `Nc1ncnc2c1ncn2[C@@H]1O[C@H](COP(=O)(O)OP(=O)(O)OP(=O)(O)O)[C@@H](O)[C@H]1O` [ATP, adenosine-5′-triphosphate, reference compound], the “activity in empty vector-transfected parental 1321N1 cells” value in [1] is reported as “lacked activity”. In [2] (EC50 for ATP, NRCMs, in the absence of Compound 89), this molecule yielded an EC50 of 2600 nM. In experiment [3] (10 μM, steadily after 30 min), the “expression of all Nr4a genes” value is “increased”. Also, the “induction of Nr4a1 mRNA at 2 h versus isoproterenol alone” value in [3] is reported as “did not affect induction”. In [4] (10 and 100 μM, P = 0.568), the “effect on isoproterenol-induced cardiac hypertrophy (hypertrophic score)” value was “no significant effects”.
Consider `CCN(Cc1ccc(F)cc1)Cc1cc(=O)c2ccc(C)c(C)c2[nH]1` [Compound 89, 2-((ethyl(4-fluorobenzyl)amino)methyl)-7,8-dimethylquinolin-4(1H)-one], for which, on human P2Y4 receptor, the “agonistic activity against hP2Y4” value is given as “lacked agonistic activity”. For the same molecule, the intrinsic agonistic activity result in [5] was “no intrinsic agonistic activity”. The “effect on β-adrenergic receptor-mediated cAMP signalling” value in the experiment on β-adrenergic receptor is “does not affect”. Besides, the EC50 in [2] (EC50 for Compound 89, NRCMs, in the presence of 1 μM ATP) stood at 1300 nM; in experiment [2] (EC50 for Compound 89, NRCMs, in the presence of 30 μM ATP), 110 nM; on human P2Y2 receptors (EC50 (potency), agonistic activity, transiently-expressing hP2Y2-1321N1 cells (Fig. 1b)), 10500 nM; on human P2Y2 receptors (EC50 for Compound 89, hP2Y2 stably-expressing 1321N1 cells, in the absence of ATP), 53900 nM; on human P2Y2 receptors (EC50 for Compound 89, hP2Y2 stably-expressing 1321N1 cells, in the presence of 10 nM ATP), 2500 nM; on mouse P2Y2 receptors (stably-expressing mP2Y2-1321N1 cells (Fig. 1b), read-out: EC50 (potency), agonistic activity) it was 2700 nM. Besides, the “agonistic activity against hP2Y12” value at human P2Y12 receptor is “lacked agonistic activity”. The Emax at human P2Y2 receptors (setting [6]) was 65.8%; at mouse P2Y2 receptors (setting [6]), 50.9%. Moreover, the “induction of Nr4a1 mRNA at 2 h versus isoproterenol alone” value in experiment [3] was “greater”. For the same molecule, the “effect on ATP-induced gene expression changes” value in experiment [3] (co-administration at 10 and 30 μM with ATP, concentration-dependent) is reported as “enhanced”. The “changes in gene expression (Nr4a1, Nr4a2, Nr4a3, c-fos) by compound alone” value in experiment [3] (without ATP, up to 90 min) is “did not induce any changes in gene expression”. Further, the “attenuation of hypertrophy after 48 h of treatment” value in experiment [4] (30 μM) is “Complete attenuation”. Besides, in experiment [4] (1 to 30 μM, concentration-dependent), the “effect on isoproterenol-induced cardiac hypertrophy (hypertrophic score)” value is given as “attenuated”. The “agonistic activity against hP2Y6” value at human P2Y6 receptor is reported as “lacked agonistic activity”. Moreover, at human P2Y1 receptor, the “agonistic activity against hP2Y1” value is listed as “lacked agonistic activity”. Besides, at human P2Y11 receptor, the “agonistic activity against hP2Y11” value is given as “lacked agonistic activity”.
Regarding `Nc1ncnc2c1ncn2[C@@H]1O[C@H](COP(=O)(O)OP(=O)(O)O)[C@@H](O)[C@H]1O` [ADP, adenosine-5′-diphosphate], the “activity in empty vector-transfected parental 1321N1 cells” value in experiment [1] is “lacked activity”.
Take `CC(C)NCC(O)c1ccc(O)c(O)c1` (centres unmarked) [isoproterenol, reference compound]: the “induction of Nr4a1 mRNA at 2 h versus vehicle” value in experiment [3] (10 μM isoproterenol, P = 5 × 10^−4) is listed as “significantly induced”.

The term EC50 denotes the concentration giving half of the maximal effect.

(Values after article PMC5519634, “Effects of 4(1H)-quinolinone derivative, a novel non-nucleotide allosteric purinergic P2Y2 agonist, on cardiomyocytes in neonatal rats” (Scientific Reports, 2017).)
